# Results reported in patent publication US20120171123A1, “USES AND COMPOSITIONS FOR TREATMENT OF RHEUMATOID ARTHRITIS” (priority 2006, published 2012).
# Read-outs that look alike come from different tables or passages of the source.
# Experiments:
# [1] = tested on: patients with long-standing RA; conditions: in vivo
# [2] = tested on: patients with long-standing RA who had inadequate responses to MTX; assay: Study 1: serious adverse events
# Description: Periodic ACR component evaluations were also performed throughout the study. Outcome measures included the following: Total Sharp Score (TSS), including joint erosions (JE) and joint space narrowing (JSN); ACR20, ACR50, and ACR70 response rates; and individual components of ACR responses criteria, including swollen joint count (SJC) and tender joint count (TJC). Efficacy and safety evaluations were conducted at regularly scheduled visits.
# [3] = tested on: patients with long-standing RA; assay: Study 4: DAS28, clinical remission and sustained remission; assay type: in vivo, human
# Description: DAS28 represents disease activity, taking into consideration the TJC 28, SJC 28, CRP, and patient general health (based on VAS of 100 mm) (see Prevoo et al. (1995) Arthritis Rheum 38:44-48 and Van Gestel et al. (1999) J Rheumatol 26:705-711, each of which is incorporated by reference herein). DAS28 scores greater than or equal to 5.1 represent severe activity disease activity, less than 5.1 to 3.2 indicate moderate disease activity, less than 3.2 to 2.6 indicate low disease activity, and scores below 2.6 represent remission. At the end of the fourth year, the median DAS28 score was 2.7 (low disease activity). […] The largest increase in percentage of patients in clinical remission was seen between months 0-6, where an increase in the percentage of patients in remission went from 0% at month 0 to about 27% at month 6.
# The rates of sustained remission and time to remission were consistent across durations of the disease. Remission rates were defined as greater than or equal to 6 months by baseline disease duration. Rates of sustained remission and time to remission are described below in Table 16.
# Remission rates were defined as greater than or equal to 6 months by baseline disease duration.
# Efficacy outcomes were evaluated as observed data: DAS28; ACR 20/50/70; Tender Joint Count (TJC); Swollen Joint Count (SJC); and HAQ Disability Index. Baseline demographics and disease characteristics were similar in both Study 4 and Study 5 consistent with moderate to severe RA, as shown below in Table 64: […]
# [4] = tested on: patients with RA who had failed prior treatment with infliximab; assay: Adalimumab after failed infliximab: TJC28 and SJC28; assay type: in vivo, human; conditions: 16 wk
# Description: Patients eligible to participate in the study included those with long-standing, moderate to severe RA who had terminated infliximab therapy because of lack or loss of efficacy and/or intolerance/side effects. […] Follow-up visits for safety and efficacy monitoring were scheduled at 2, 8, and 16 weeks. […] Efficacy parameters included TJC28 and SJC28; DAS28; ACR20, ACR50 Response; Moderate EULAR response; and HAQ. Subgroup analysis by reason for discontinuation included: • in case of discontinuation due to lack or loss of efficacy, patients were counted in the corresponding group regardless of additional cause of intolerance. • The subgroup “Discontinuation due to intolerance” was exclusive.
# [5] = tested on: patients with RA
# Description: The ADA pivotal trials were Study I, Study I (both ADA+MTX in MTX partial responders), Study 2 (ADA monotherapy) and Study K (ADA added to standard of care). Patients from the Phase I-III controlled clinical trials of ADA in RA, including the pivotals, were allowed to receive ADA as long-term, open-label therapy in 3 extension studies: 1) Study 18, for ADA monotherapy in the EU, 2) Study 20, for ADA with MTX in NA, and 3) the extension of Study 1, in NA. […] Adverse events are classified as “serious” adverse events based on the following regulatory criteria: fatal, life-threatening, requires inpatient hospitalization, prolongs hospitalization, causes congenital anomaly/birth defect, results in persistent or significant disability/incapacity, an important medical event that jeopardizes the patient and requires medical/surgical intervention to prevent another serious outcome. Serious infections (SI) are defined as “serious adverse events” that are coded under “Infections and Infestations” in the MedDRA coding system. […] 1, 2005 were analyzed in the report described herein. Non-serious infections were not included in this analysis. Serious infections reported during these trials were tabulated and rates were calculated as events per patient-year (E/PY). […] Rates of SI were determined for subsets of patients who, at the time of the SI, had diabetes, or were using concomitant steroids or concomitant MTX.
# [6] = blinded-controlled and OLE periods
# [7] = all reasons for infliximab withdrawal (N=37)
# [8] = loss of response to infliximab (N=19)
# [9] = no response to infliximab (N=13)
# [10] = open-label trials, N = 2504, 7951 PY
substance,measurement,setting,value
"adalimumab: human anti-TNF mAb (HUMIRA, Abbott Laboratories), described in U.S. Pat. No. 6,090,382 as D2E7",withdrawals for adverse events,[1],15%
same,Demyelinating disease,[2]; [6],0.2 events/100-PY
same,Histoplamosis,[2]; [6],0.2 events/100-PY
same,Tuberculosis,[2]; [6],0.2 events/100-PY
same,Demyelinating disease,[2]; blinded-controlled period,0.3 events/100-PY
same,Histoplamosis,[2]; blinded-controlled period,0.3 events/100-PY
same,Tuberculosis,[2]; blinded-controlled period,0.3 events/100-PY
same,Lymphoma,[2]; in vivo,0.3 events/100-PY
same,Urinary tract infections,[2]; in vivo,0.3 events/100-PY
same,"DAS28, % change of mean clinical improvement from baseline",[3]; 6 months of exposure,39%
same,"DAS28, % change of mean clinical improvement from baseline",[3]; 12 months,44%
same,"DAS28, % change of mean clinical improvement from baseline",[3]; 24 months,45%
same,"DAS28, % change of mean clinical improvement from baseline",[3]; 36 months,47%
same,"DAS28, % change of mean clinical improvement from baseline",[3]; 48 months,50%
same,patients in clinical remission (DAS28<2.6),[3]; 48 months,49%
same,patients achieving clinical remission (DAS28<2.6),[3]; Year 5,Over 40%
same,Months in remission (mean),[3]; baseline DAS28 < 5.1,27 months
same,Months until remission (mean),[3]; baseline DAS28 < 5.1,8 months
same,patients with sustained remission (≧6 months),[3]; baseline DAS28 < 5.1,"(n = 105, 50%*)"
same,Months in remission (mean),[3]; baseline DAS28 ≧ 5.1,23 months
same,Months until remission (mean),[3]; baseline DAS28 ≧ 5.1,11 months
same,patients with sustained remission (≧6 months),[3]; baseline DAS28 ≧ 5.1,"(n = 140, 22%**)"
same,% of visits with ACR70 during remission,[3]; disease duration >2 years,64%
same,% of visits with CRP <10 mg/L during remission,[3]; disease duration >2 years,95%
same,% of visits with SJC = 0 during remission,[3]; disease duration >2 years,54%
same,% of visits with TJC = 0 during remission,[3]; disease duration >2 years,70%
same,Months in remission (mean),[3]; disease duration >2 years,25 months
same,Months until remission (mean),[3]; disease duration >2 years,10 months
same,patients with sustained remission (≧6 months),[3]; disease duration at entry >2 years,"(n = 209, 29%*)"
same,patients with sustained remission (≧6 months),[3]; disease duration at entry ≦2 years,"(n = 36, 31%*)"
same,% of visits with ACR70 during remission,[3]; disease duration ≦2 years,71%
same,% of visits with CRP <10 mg/L during remission,[3]; disease duration ≦2 years,94%
same,% of visits with SJC = 0 during remission,[3]; disease duration ≦2 years,64%
same,% of visits with TJC = 0 during remission,[3]; disease duration ≦2 years,77%
same,Months in remission (mean),[3]; disease duration ≦2 years,25 months
same,Months until remission (mean),[3]; disease duration ≦2 years,10 months
same,median DAS28 score,[3]; end of fourth year,2.7
same,patients in clinical remission (DAS28<2.6),[3]; month 6,about 27%
same,"Change in SJC (0-28), mean change from baseline",[4]; [7],−5.2
same,"Change in TJC (0-28), mean change from baseline",[4]; [7],−7.4
same,"Change in SJC (0-28), mean change from baseline",[4]; infliximab intolerance (N=5),−7.8
same,"Change in TJC (0-28), mean change from baseline",[4]; infliximab intolerance (N=5),−10.0
same,"Change in SJC (0-28), mean change from baseline",[4]; [8],−6.1
same,"Change in TJC (0-28), mean change from baseline",[4]; [8],−8.2
same,"Change in SJC (0-28), mean change from baseline",[4]; [9],−2.8
same,"Change in TJC (0-28), mean change from baseline",[4]; [9],−5.1
same,serious infection rate,"[5]; 146 patients with diabetes, 427 PY",0.049 /PY
same,patients who experienced a serious infection,[5]; 285 of 2504 patients,11%
same,serious infection rate,"[5]; 2504 patients, 7951 PY, to Mar. 1, 2005",0.045 /PY
same,rate of serious infections,[5]; all patients,4.5 events per 100 PY
same,serious infection rate,"[5]; blinded controlled phases of pivotal trials, 1380 patients",0.042 /PY
same,Pneumonia,"[5]; human, in vivo",64 events
same,cellulitis,"[5]; human, in vivo",29 events
same,Septic arthritis,[5]; open-label trials,37 events
same,"Patients with serious infections, %",[5]; [10],11.4%
same,Serious infection Cellulitis: number of events E,[5]; [10],29
same,Serious infection Cellulitis: rate (E/100PY),[5]; [10],0.4 E/100PY
same,Serious infection Pneumonia: number of events E,[5]; [10],64
same,Serious infection Pneumonia: rate (E/100PY),[5]; [10],0.8 E/100PY
same,Serious infection Septic Arthritis: number of events E,[5]; [10],37
same,Serious infection Septic Arthritis: rate (E/100PY),[5]; [10],0.5 E/100PY
same,rate of serious infections,[5]; with diabetes mellitus,4.9 events per 100 PY
same,rate of serious infections,[5]; without diabetes mellitus,4.5 events per 100 PY
